Reference: ChEMBL document CHEMBL4342418, “1,2,3-Triazole-containing hybrids as potential anticancer agents: Current developments, action mechanisms and structure-activity relationships” (Eur J Med Chem, 2019)
pIC50: −log10 of the molar value. Each block holds one compound with its values, some of them ahead of it.

Assays:
HepG2 [1] = assay: Antiproliferative activity against human HepG2 cells by MTT assay; type: functional, cell-based
SK-N-SH [2] = assay: Potency index, ratio of 5-Fluorouracil IC50 to test compound IC50 for antiproliferative activity against human SK-N-SH cells by MTT assay; type: functional
MGC-803 [3] = assay: Antiproliferative activity against human MGC803 cells by MTT assay; type: functional, cell-based
HepG2 [4] = assay: Potency index, ratio of 5-Fluorouracil IC50 to test compound IC50 for antiproliferative activity against human HepG2 cells by MTT assay; type: functional
SK-N-SH [5] = assay: Antiproliferative activity against human SK-N-SH cells by MTT assay; type: functional, cell-based
MGC-803 [6] = assay: Potency index, ratio of 5-Fluorouracil IC50 to test compound IC50 for antiproliferative activity against human MGC803 cells by MTT assay; type: functional
DU-145 [7] = assay: Antiproliferative activity against human DU145 cells by MTT assay; type: functional, cell-based
A549 [8] = assay: cells; type: functional, cell-based; settings: Homo sapiens
Description: Antiproliferative activity against human A549 cells by MTT assay

B16 = assay: Antiproliferative activity against mouse B16 cells by MTT assay; type: functional, cell-based
MCF7 [9] = assay: cells; type: functional, cell-based; settings: Homo sapiens
Description: Antiproliferative activity against human MCF7 cells by MTT assay

HeLa [10] = assay: Antiproliferative activity against human HeLa cells by MTT assay; type: functional, cell-based
PC-3 [11] = assay: Antiproliferative activity against human PC3 cells by MTT assay; type: functional, cell-based
NIH3T3 = assay: Antiproliferative activity against mouse NIH/3T3 cells by MTT assay; type: functional, cell-based
T47D = assay: Antiproliferative activity against human T47D cells assessed as reduction in cell viability after 48 hrs by MTT assay; type: functional, cell-based
A549 [12] = assay: Growth inhibition in human A549 cells after 48 hrs by SRB assay; type: functional; settings: A549, 48 h
MDA-MB-231 [13] = assay: cells; settings: Homo sapiens
Description: Antiproliferative activity against human MDA-MB-231 cells assessed as reduction in cell viability preincubated for 24 hrs under hypoxia condition further incubated for 72 hrs under normaxic condition by MTT assay

A-431 = assay: Antiproliferative activity against human A431 cells assessed as reduction in cell viability after 24 hrs by MTT assay; type: functional, cell-based; settings: A-431, 24 h
DU-145 [14] = assay: Growth inhibition in human DU145 cells after 48 hrs by SRB assay; type: functional; settings: DU-145, 48 h
COLO 205 = assay: Antiproliferative activity against human COLO205 cells assessed as reduction in cell viability after 24 hrs by MTT assay; type: functional, cell-based; settings: COLO 205, 24 h
PANC-1 = assay: Growth inhibition in human PANC1 cells after 48 hrs by SRB assay; type: functional; settings: PANC-1, 48 h
HT-29 = assay: Antiproliferative activity against human HT-29 cells assessed as reduction in cell viability after 72 hrs by MTT assay; type: functional, cell-based; settings: HT-29, 72 h
HeLa [15] = assay: Antiproliferative activity against human HeLa cells by SRB assay; type: functional, cell-based
MDA-MB-231 [16] = assay: Growth inhibition in human MDA-MB-231 cells after 48 hrs by SRB assay; type: functional; settings: MDA-MB-231, 48 h
IMR-32 [17] = assay: Growth inhibition in human IMR32 cells after 48 hrs by SRB assay; type: functional; settings: IMR-32, 48 h
Caco-2 = assay: Antiproliferative activity against human Caco2 cells assessed as reduction in cell viability after 48 hrs by MTT assay; type: functional, cell-based; settings: Caco-2, 48 h
K562 [18] = assay: Antiproliferative activity against human K562 cells assessed as reduction in cell viability after 24 hrs by MTT assay; type: functional, cell-based; settings: K562, 24 h
[19] = Antiproliferative activity against human MiaPaCa cells by SRB assay; type: functional; settings: MIA PaCa-2
U-87 MG = assay: Antiproliferative activity against human U87 cells assessed as reduction in cell viability after 72 hrs by MTT assay; type: functional, cell-based, U-87MG ATCC
MCF7 [20] = assay: Antiproliferative activity against human MCF7 cells assessed as reduction in cell viability after 72 hrs by MTT assay; type: functional, cell-based; settings: MCF7, 72 h
SiHa = assay: Growth inhibition in human SiHa cells after 48 hrs by SRB assay; type: functional
A549 [21] = assay: Antiproliferative activity against human A549 cells assessed as reduction in cell viability after 24 hrs by MTT assay; type: functional, cell-based; settings: A549, 24 h
MDA-MB-231 [22] = assay: Antiproliferative activity against human MDA-MB-231 cells assessed as reduction in cell viability after 48 hrs by MTT assay; type: functional, cell-based; settings: MDA-MB-231, 48 h
MDA-MB-231 [23] = assay: Antiproliferative activity against human MDA-MB-231 cells by SRB assay; type: functional
IMR-32 [24] = assay: Antiproliferative activity against human IMR32 cells assessed as reduction in cell viability after 72 hrs by MTT assay; type: functional, cell-based; settings: IMR-32, 72 h
MDA-MB-231 [25] = assay: Antiproliferative activity against human MDA-MB-231 cells assessed as reduction in cell viability after 24 hrs by MTT assay; type: functional, cell-based; settings: MDA-MB-231, 24 h
MCF7 [26] = assay: Antiproliferative activity against human MCF7 cells assessed as reduction in cell viability after 48 hrs by MTT assay; type: functional, cell-based; settings: MCF7, 48 h
HCT-116 [27] = assay: Antiproliferative activity against human HCT116 cells assessed as reduction in cell viability after 48 hrs by MTT assay; type: functional, cell-based; settings: HCT-116, 48 h
MDA-MB-231 [28] = assay: Antiproliferative activity against human MDA-MB-231 cells assessed as reduction in cell viability after 72 hrs by MTT assay; type: functional, cell-based; settings: MDA-MB-231, 72 h
PC-3 [29] = assay: Antiproliferative activity against human PC3 cells assessed as reduction in cell viability after 24 hrs by MTT assay; type: functional, cell-based; settings: PC-3, 24 h
MOLT-4 = assay: Antiproliferative activity against human MOLT4 cells assessed as reduction in cell viability after 72 hrs by MTT assay; type: functional, cell-based; settings: MOLT-4, 72 h
IMR-32 [30] = assay: Antiproliferative activity against human IMR32 cells by SRB assay; type: functional
HeLa [31] = assay: Antiproliferative activity against human HeLa cells assessed as reduction in cell viability after 48 hrs by MTT assay; type: functional, cell-based
MDA-MB-231 [32] = assay: cells; settings: Homo sapiens, MDA-MB-231, 96 h
Description: Antiproliferative activity against human MDA-MB-231 cells assessed as reduction in cell viability incubated for 96 hrs under normaxic condition by MTT assay

HCT-116 [33] = assay: Antiproliferative activity against human HCT116 cells by MTT assay; type: functional, cell-based
LoVo = assay: Antiproliferative activity against human LoVo cells by MTT assay; type: functional, cell-based
K562 [34] = assay: Antiproliferative activity against human K562 cells by MTT assay; type: functional, cell-based
[35] = Antiproliferative activity against human GBM95 cells assessed as reduction in cell viability after 72 hrs by MTT assay; type: functional, cell-based
[36] = Antiproliferative activity against human GBM2 cells assessed as reduction in cell viability after 72 hrs by MTT assay; type: functional, cell-based; settings: GBM2, 72 h
[37] = Potency index, ratio of temozolomide IC50 to test compound IC50 for antiproliferative activity against human GBM2 cells; type: functional
[38] = Potency index, ratio of temozolomide IC50 to test compound IC50 for antiproliferative activity against human GBM95 cells; type: functional
NCI-H23 = assay: cells; type: functional, cell-based; settings: Homo sapiens, NCI-H23, 48 h
Description: Antiproliferative activity against human NCI-H23 cells assessed as reduction in cell viability after 48 hrs by MTT assay

PC-3 [39] = assay: cells; type: functional, cell-based; settings: Homo sapiens, PC-3, 48 h
Description: Antiproliferative activity against human PC3 cells assessed as reduction in cell viability after 48 hrs by MTT assay

SW-620 = assay: cells; type: functional, cell-based; settings: Homo sapiens, SW-620, 48 h
Description: Antiproliferative activity against human SW620 cells assessed as reduction in cell viability after 48 hrs by MTT assay

ASPC1 = assay: cells; type: functional, cell-based; settings: Homo sapiens, ASPC1, 48 h
Description: Antiproliferative activity against human Aspc-1 cells assessed as reduction in cell viability after 48 hrs by MTT assay

SMILES: CCc1ccc(-c2cn(CCNC3=C(C)C(=O)c4ccccc4C3=O)nn2)cc1
pIC50 (DU-145 [7]): 4.58 to 5.10
pIC50 (A549 [8]): 4.58 to 5.10
pIC50 (B16): 4.58 to 5.10
pIC50 (MCF7 [9]): 4.58 to 5.10
pIC50 (HeLa [10]): 4.58 to 5.10

SMILES: COc1cc([C@@H]2c3cc4c(cc3[C@H](O)[C@H]3COC(=O)[C@H]23)OCO4)cc(OC)c1OC [PODOFILOX]
pIC50 (DU-145 [7]): 5.18 to 5.51
pIC50 (HepG2 [1]): 5.18 to 5.51
pIC50 (A549 [8]): 4.46 to 5.51
pIC50 (PC-3 [11]): 4.46 to 5.51
pIC50 (MCF7 [9]): 4.46 to 5.51
pIC50 (HeLa [10]): 5.18 to 5.51
pIC50 (NIH3T3): 5.18 to 5.51

SMILES: O=Cc1ccccc1-n1cc(COc2cccc(OCc3cn(-c4ccccc4C=O)nn3)c2)nn1
pIC50 [35]: 4.42
pIC50 [36]: 4.52
Ratio IC50 [37]: 37.3
Ratio IC50 [38]: 16.3

SMILES: COc1ccc2c(c1)/C(=N\O)C(=O)N2Cc1cn(Cc2ccc(C(=O)NO)cc2)nn1
pIC50 (NCI-H23): 5.58 to 5.85
pIC50 (PC-3 [39]): 5.58 to 5.85
pIC50 (SW-620): 5.58 to 5.85
pIC50 (ASPC1): 5.58 to 5.85

Now from value to compound, other results behind:

pIC50 (HepG2 [1]): 5.56 to 5.82
pIC50 (MGC-803 [3]): 5.56 to 5.82
pIC50 (SK-N-SH [5]): 5.56 to 5.82
SMILES: COc1cccc(Cn2cc(CNc3ccc(C(=O)/C=C/c4cccnc4)cc3)nn2)c1
Ratio IC50 (SK-N-SH [2]): 2.6 - 6.7
Ratio IC50 (HepG2 [4]): 2.6 - 6.7
Ratio IC50 (MGC-803 [6]): 2.6 - 6.7

pIC50 (T47D): 5.00 to 6.00
GI50 (A549 [12]): < 10 nM
pIC50 (MDA-MB-231 [13]): 6.22
pIC50 (A-431): 4.92 to 5.84
GI50 (DU-145 [14]): < 10 nM
pIC50 (COLO 205): 4.92 to 5.84
GI50 (PANC-1): < 10 nM
pIC50 (HT-29): 6.47 to 7.82
GI50 (HeLa [15]): 23 to 97 nM
GI50 (MDA-MB-231 [16]): < 10 nM
pIC50 (A549 [8]): 5.48
pIC50 (Caco-2): 5.00 to 6.00
pIC50 (K562 [18]): 4.92 to 5.84
pIC50 (U-87 MG): 6.37 to 7.10
pIC50 (MCF7 [20]): 6.47 to 7.82
pIC50 (A549 [21]): 4.92 to 5.84
pIC50 (MDA-MB-231 [22]): 5.33 to 6.26
GI50 (MDA-MB-231 [23]): 23 to 97 nM
pIC50 (MDA-MB-231 [25]): 4.92 to 5.84
pIC50 (MCF7 [26]): 5.00 to 6.00
pIC50 (HCT-116 [27]): 5.00 to 6.26
pIC50 (MDA-MB-231 [28]): 6.37 to 7.10
pIC50 (PC-3 [29]): 4.92 to 5.84
pIC50 (MOLT-4): 6.47 to 7.82
pIC50 (HeLa [31]): 5.33 to 6.26
SMILES: COc1cccc2c1C(=O)c1c(O)c3c(c(O)c1C2=O)C[C@@](O)(C(=O)CO)C[C@@H]3O[C@H]1C[C@H](N)[C@H](O)[C@H](C)O1 [DOXORUBICIN]
GI50 (IMR-32 [17]): < 10 nM
GI50 [19]: 23 to 97 nM
GI50 (SiHa): < 10 nM
pIC50 (IMR-32 [24]): 6.37 to 7.10
GI50 (IMR-32 [30]): 23 to 97 nM

pIC50 (MDA-MB-231 [13]): 7.52
pIC50 (MDA-MB-231 [32]): 5.87
SMILES: COc1ccc(NC(=O)c2ccc(-n3cc(COc4cc(=O)oc5ccccc45)nn3)cc2)cc1OC

pIC50 (HepG2 [1]): 5.21 to 5.45
pIC50 (HCT-116 [33]): 5.21 to 5.45
pIC50 (LoVo): 5.21 to 5.45
pIC50 (K562 [34]): 5.21 to 5.45
pIC50 (MCF7 [9]): 5.21 to 5.45
SMILES: COc1ccc2[nH]cc(Cn3cc(COc4ccc(/C=C/C(=O)NO)cc4OC)nn3)c2c1
